Experimental findings from publication PMC7714403 (JCI Insight, 2020) are described below.

Where two headings read alike, the source gives them in different places.

One assay has as its target MAP3K6 (Homo sapiens, UniProt O95382). Put plainly: KiNativ, OCI cells live cell. The assay is classed as cell-based. The settings on record: 2 h, labeling site Lys2, peptide […].
A further assay concerns the target AKT1 (Homo sapiens, UniProt P31749). The experiment in a line: KiNativ, OCI cells live cell. The assay is classed as cell-based. The settings on record: 2 h, labeling site ATP Loop, peptide […].
The test system of a further assay is IKKe, TBK1. The experiment in a line: KiNativ, OCI cells live cell. The assay is classed as cell-based, human. The settings on record: labeling site Lys2, peptide DIKPGNIMR
For assay [1], the system named is MSK1 domain1, MSK2 domain1. The experiment in a line: KiNativ, OCI cells live cell. To be noted: labeling site ATP Loop, peptide VLGTGAYGKVFLVR
The assay is classed as cell-based, human.

For a further assay, the target named is GSK3B (Homo sapiens, UniProt P49841). The experiment in a line: KiNativ, OCI cells live cell. Type of assay: cell-based. The settings on record: 2 h, labeling site Lys2, peptide […].
The next assay deals with FLT3 ITD (Homo sapiens, UniProt P36888, ITD). The experiment in a line: Kinase assay by Reaction Biology. Type of assay: biochemical. To be noted: enzymatic kinase assay.
The next assay deals with Wnk1, Wnk2, Wnk3. Put plainly: KiNativ, OCI cells live cell. To be noted: labeling site Lys2, peptide DLKCDNIFITGPTGSVK
Type of assay: cell-based, human.

Another assay deals with FYN, SRC, YES. Put plainly: KiNativ, OCI cells live cell. Type of assay: cell-based, human. To be noted: labeling site Activation Loop, peptide QGAKFPIKWTAPEAALYGR
Another assay has as its target PKR (Homo sapiens, UniProt P19525). The experiment in a line: KiNativ, OCI cells live cell. The assay is classed as cell-based.
A further assay addresses IRE1 (Homo sapiens, UniProt O75460). Put plainly: KiNativ, OCI cells live cell. The assay is classed as cell-based. To be noted: 2 h, labeling site Lys2, peptide […].
A further assay concerns the target T1, NEK9 (Homo sapiens, UniProt Q8TD19).
T1 sequence (Q8TD19 1-979): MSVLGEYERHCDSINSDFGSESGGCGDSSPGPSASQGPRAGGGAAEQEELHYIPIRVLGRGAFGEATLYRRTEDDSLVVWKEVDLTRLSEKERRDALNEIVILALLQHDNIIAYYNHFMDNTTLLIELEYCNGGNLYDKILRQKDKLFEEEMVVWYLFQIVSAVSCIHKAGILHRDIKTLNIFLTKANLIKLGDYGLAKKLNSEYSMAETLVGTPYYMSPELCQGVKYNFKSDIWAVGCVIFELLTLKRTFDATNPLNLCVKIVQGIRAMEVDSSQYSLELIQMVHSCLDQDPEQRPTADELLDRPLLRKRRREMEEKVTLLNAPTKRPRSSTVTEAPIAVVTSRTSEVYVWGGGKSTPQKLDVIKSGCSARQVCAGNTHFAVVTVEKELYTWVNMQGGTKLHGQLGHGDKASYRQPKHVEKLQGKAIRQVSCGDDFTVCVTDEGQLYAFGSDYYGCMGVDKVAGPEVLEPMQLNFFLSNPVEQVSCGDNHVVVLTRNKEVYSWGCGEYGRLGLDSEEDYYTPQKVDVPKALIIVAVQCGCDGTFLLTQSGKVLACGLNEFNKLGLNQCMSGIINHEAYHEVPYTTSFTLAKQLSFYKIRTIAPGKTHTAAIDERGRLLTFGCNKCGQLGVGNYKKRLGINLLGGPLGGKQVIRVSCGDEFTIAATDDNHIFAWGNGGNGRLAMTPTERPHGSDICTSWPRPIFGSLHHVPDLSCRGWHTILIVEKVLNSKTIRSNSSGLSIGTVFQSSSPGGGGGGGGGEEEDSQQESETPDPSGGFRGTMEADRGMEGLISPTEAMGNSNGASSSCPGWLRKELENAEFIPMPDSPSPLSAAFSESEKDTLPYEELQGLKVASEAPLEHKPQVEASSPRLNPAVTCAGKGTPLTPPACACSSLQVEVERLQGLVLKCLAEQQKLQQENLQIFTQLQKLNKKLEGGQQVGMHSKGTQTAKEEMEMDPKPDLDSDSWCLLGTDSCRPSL
Put plainly: KiNativ, OCI cells live cell. The assay is classed as cell-based. To be noted: 2 h.

The target of a further assay is T2, RSK1 domain2 (Homo sapiens, UniProt Q15418).
T2 construct: RSK1 domain2
Put plainly: KiNativ, OCI cells live cell. The assay is classed as cell-based. To be noted: 2 h, labeling site Lys2, peptide […].

In the next assay the test system is OCI-AML3-Luc+ cells. The experiment in a line: OCI-AML3-Luc+ xenograft model. Type of assay: in vivo, NSG mice. The method, then:
Engraftment and growth of leukemic cells were monitored by noninvasive bioluminescence imaging in cell line xenograft models, as previously done ([47]). Details on the cell engraftment and dosing in mouse models are provided in the Supplemental Methods.
Luc+ or MOLM13-Res -Luc+ cells, 0.5 million OCI-AML3 -Luc+ cells, and 10,000 Ba/F3-FLT3-ITD/F691L-GFP+ cells. Weekly tumor engraftment of cell line xenograft models were assessed after injection of D-luciferin (150mg/kg i.p.; Gold Biotechnology, Inc, St. Louis, MO) on Xenogen IVIS-200 imaging system (Perkin Elmer, Waltham, MA) or GFP monitoring by peripheral blood via BD LSR II flow cytometer (BD Biosciences, San Jose, CA). Signal intensity was analyzed using Living Image Software (PerkinElmer) or FlowJo v10.0.08 software (FlowJo, LLC, Ashland, OR). Mice were randomized to treatment groups based on signal intensity and leukemia burden. Drug treatments were started on days 3, 7, or 13 after cell injection in OCI-AML3, MOLM13, and MOLM13-Res xenografts, respectively. […]
All mice were observed daily and humanely euthanized when showing signs of progressive disease including, hind limb paralysis, weight loss more than 20%, and lethargy. All animal studies were approved by the OSU Institutional Animal Care and Use Committee. […]
Cells were then fixed on ice with ice-cold 70% ethanol for 30 minutes . Cells were either stored at -20°C for up to 1 month or processed immediately. Cells were spun down at 450 x g for 10 minutes and stained

The target of a further assay is CaMK2g (Homo sapiens, UniProt Q13555). Put plainly: KiNativ, OCI cells live cell. The assay is classed as cell-based. To be noted: 2 h, labeling site Lys1, peptide […].
The next assay deals with NEK6, NEK7. The experiment in a line: KiNativ, OCI cells live cell. The assay is classed as cell-based, human. The settings on record: labeling site Lys2, peptide DIKPANVFITATGVVK
The target in the next assay is PFTAIRE2 (Homo sapiens, UniProt Q96Q40). Put plainly: KiNativ, OCI cells live cell. Type of assay: cell-based. The settings on record: 2 h, labeling site Lys2, peptide […].
A further assay deals with CDK7 (Homo sapiens, UniProt P50613). The experiment in a line: KdELECT binding assay. Set-up: purchased Eurofins DiscoverX.
Setting [2] is: 50 mg/kg once daily 5 days/week.

PKR, sequence (P19525 whole entry): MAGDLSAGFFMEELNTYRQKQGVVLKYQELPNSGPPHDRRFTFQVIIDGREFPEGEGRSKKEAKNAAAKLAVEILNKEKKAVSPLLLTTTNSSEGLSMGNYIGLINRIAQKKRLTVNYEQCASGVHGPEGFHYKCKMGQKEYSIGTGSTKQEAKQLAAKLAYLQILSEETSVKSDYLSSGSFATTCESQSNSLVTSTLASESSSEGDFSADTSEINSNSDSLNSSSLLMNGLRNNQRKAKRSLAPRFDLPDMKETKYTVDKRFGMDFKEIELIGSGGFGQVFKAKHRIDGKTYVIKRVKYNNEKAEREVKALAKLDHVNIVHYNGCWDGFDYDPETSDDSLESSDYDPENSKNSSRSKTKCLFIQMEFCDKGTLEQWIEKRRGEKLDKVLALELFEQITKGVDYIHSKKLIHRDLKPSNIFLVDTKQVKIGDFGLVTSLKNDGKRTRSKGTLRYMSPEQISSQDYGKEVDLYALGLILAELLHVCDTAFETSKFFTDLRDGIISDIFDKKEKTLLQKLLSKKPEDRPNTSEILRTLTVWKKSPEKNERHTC
CDK7, sequence (P50613 whole entry): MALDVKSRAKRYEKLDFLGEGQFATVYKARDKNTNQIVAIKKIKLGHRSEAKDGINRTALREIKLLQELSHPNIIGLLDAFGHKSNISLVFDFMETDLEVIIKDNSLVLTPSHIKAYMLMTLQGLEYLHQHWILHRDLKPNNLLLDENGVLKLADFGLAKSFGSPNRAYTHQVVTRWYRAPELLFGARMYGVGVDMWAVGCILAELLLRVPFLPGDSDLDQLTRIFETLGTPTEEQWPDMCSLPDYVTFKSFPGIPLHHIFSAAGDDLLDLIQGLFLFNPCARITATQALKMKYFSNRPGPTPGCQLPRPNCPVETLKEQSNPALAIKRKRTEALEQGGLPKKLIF
MAP3K6, sequence (O95382 whole entry): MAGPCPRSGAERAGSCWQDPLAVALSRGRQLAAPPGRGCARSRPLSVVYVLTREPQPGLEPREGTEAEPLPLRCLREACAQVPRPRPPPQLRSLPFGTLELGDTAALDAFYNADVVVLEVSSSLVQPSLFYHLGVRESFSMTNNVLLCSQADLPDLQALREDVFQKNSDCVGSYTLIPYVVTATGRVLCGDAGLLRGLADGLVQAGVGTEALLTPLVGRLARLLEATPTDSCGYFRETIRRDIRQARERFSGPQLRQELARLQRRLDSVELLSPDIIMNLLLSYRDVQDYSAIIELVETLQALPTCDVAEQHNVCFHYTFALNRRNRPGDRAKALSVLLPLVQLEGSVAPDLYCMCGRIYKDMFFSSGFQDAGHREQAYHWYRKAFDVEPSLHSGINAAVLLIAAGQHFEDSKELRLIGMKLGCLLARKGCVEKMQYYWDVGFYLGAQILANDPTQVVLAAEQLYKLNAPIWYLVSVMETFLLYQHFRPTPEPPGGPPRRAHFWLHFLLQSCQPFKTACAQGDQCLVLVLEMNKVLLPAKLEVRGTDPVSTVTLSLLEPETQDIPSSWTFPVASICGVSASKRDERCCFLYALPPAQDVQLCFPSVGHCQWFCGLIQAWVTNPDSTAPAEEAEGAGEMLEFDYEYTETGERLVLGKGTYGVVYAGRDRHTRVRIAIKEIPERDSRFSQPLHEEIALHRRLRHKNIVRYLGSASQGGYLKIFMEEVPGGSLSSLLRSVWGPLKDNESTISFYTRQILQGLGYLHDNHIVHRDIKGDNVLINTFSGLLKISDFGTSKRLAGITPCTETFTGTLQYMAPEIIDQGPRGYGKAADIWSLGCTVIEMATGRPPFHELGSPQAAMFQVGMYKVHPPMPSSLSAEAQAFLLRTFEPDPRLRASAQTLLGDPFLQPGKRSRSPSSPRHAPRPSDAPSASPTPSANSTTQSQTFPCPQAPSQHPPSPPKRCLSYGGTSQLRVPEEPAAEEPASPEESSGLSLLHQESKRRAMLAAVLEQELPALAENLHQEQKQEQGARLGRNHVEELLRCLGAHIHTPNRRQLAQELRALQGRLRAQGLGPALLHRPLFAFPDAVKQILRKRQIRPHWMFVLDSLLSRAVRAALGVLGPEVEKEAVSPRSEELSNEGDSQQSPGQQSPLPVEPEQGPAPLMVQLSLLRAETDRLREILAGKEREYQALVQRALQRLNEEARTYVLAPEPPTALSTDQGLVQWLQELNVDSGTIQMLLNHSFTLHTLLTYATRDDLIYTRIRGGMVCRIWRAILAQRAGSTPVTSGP
T2 sequence (Q15418 whole entry, the tested form may be a part): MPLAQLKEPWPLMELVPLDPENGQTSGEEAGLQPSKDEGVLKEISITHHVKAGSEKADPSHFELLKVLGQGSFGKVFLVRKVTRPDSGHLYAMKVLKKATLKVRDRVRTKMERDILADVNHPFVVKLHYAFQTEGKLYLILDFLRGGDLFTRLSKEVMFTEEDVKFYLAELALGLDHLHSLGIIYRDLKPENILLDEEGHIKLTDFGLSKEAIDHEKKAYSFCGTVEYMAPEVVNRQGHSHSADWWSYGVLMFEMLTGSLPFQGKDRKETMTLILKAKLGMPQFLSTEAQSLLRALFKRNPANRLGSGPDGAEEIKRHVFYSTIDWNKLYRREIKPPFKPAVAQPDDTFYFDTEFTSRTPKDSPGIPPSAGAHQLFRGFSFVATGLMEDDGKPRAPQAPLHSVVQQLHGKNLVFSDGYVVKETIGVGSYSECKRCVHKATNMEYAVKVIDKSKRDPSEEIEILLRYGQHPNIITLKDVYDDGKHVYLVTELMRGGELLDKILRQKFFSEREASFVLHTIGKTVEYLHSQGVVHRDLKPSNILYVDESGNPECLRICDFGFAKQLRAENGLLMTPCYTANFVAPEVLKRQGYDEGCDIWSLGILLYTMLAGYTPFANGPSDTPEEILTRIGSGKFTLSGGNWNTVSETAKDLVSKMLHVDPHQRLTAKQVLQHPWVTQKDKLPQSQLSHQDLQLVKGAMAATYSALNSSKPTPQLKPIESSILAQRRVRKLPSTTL
FLT3 ITD, sequence (P36888 564-993, change not shown): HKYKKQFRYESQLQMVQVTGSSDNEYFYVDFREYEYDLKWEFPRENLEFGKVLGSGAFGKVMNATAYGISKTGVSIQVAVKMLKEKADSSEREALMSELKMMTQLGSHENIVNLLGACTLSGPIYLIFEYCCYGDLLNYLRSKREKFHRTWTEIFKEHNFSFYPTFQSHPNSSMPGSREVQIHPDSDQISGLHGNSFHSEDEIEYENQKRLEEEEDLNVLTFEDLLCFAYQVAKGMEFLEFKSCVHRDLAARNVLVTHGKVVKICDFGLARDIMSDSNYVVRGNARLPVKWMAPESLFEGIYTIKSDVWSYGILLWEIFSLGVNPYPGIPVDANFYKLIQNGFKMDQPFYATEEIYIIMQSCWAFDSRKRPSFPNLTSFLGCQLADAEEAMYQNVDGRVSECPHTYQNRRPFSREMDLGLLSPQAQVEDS
AKT1, sequence (P31749 whole entry): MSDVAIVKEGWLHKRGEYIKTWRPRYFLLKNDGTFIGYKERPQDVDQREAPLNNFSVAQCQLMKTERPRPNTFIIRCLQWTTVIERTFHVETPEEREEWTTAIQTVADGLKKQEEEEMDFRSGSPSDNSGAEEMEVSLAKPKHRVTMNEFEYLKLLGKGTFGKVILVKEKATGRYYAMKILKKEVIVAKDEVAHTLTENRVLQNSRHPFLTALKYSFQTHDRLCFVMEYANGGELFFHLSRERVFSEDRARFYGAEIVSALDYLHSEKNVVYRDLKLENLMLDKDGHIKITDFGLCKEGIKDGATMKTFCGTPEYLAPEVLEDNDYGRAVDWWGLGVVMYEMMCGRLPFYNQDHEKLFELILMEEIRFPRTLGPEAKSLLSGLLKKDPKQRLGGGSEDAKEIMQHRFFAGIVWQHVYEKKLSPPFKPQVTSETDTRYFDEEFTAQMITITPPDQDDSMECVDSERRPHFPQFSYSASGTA
CaMK2g, sequence (Q13555 whole entry): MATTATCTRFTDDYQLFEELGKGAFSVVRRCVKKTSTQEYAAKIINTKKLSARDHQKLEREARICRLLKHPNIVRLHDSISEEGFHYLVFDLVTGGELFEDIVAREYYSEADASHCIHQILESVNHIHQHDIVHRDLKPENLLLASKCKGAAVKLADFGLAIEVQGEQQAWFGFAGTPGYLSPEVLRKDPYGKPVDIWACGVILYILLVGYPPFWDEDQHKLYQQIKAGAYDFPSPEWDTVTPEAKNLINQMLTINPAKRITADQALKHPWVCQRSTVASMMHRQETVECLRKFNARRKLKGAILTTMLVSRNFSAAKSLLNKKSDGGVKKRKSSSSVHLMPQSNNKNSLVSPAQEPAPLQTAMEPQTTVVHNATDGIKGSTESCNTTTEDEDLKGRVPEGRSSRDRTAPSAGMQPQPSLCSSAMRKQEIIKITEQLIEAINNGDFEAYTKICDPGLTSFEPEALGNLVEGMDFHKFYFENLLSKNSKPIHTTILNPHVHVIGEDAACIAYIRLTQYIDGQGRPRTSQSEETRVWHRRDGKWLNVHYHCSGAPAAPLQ
GSK3B, sequence (P49841 whole entry): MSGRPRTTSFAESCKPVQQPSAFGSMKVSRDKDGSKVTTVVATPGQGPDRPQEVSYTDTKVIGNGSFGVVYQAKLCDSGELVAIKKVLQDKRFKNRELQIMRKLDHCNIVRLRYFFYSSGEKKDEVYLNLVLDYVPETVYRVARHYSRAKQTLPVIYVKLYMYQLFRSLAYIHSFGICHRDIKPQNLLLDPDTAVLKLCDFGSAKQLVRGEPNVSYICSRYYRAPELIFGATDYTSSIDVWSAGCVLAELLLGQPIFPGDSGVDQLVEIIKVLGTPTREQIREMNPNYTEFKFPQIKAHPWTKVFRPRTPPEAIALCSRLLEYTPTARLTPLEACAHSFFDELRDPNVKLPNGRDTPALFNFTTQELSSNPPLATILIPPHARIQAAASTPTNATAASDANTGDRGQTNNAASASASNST

As usually defined, the inhibition is the relative decrease from the control value, in per cent. Broadly, the Inhibition is the drop in the measured response relative to a control, in per cent. Usually IC50 stands for the midpoint of a concentration-inhibition curve. Lower therefore signals greater potency. As usually defined, the Kd is the constant that tells how readily two partners part at equilibrium. Regarding `CN1CCN(Cc2ccc(Nc3ncc(Cl)c(Nc4ccccc4S(=O)(=O)N(C)C)n3)cc2)CC1` [TP-0903], the inhibition at 0.1 µM against MAP3K6 is -13.5%; on AKT1 it was -17.1%; on GSK3B, 32.3%; on IRE1, 33.5%; on NEK9, 37.9%; on NEK9 (OCI cells, live cell, labeling site Activation Loop, peptide LGDYGLAKK, read-out: Inhibition) it was 39.6%. Besides, the inhibition at 0.1 µM on NEK9 (OCI cells, live cell, labeling site Lys1, peptide RTEDDSLVVWKEVDLTR, read-out: Inhibition) came to 40.8%; against RSK1 domain2 it was 8.6%; on CaMK2g, 31.6%; at PFTAIRE2 it was 28.4%. The Inhibition in the assay with IKKe, TBK1 is listed as 64.1%; in [1] it was 11.0%; in the assay with Wnk1, Wnk2, Wnk3, -14.9%; with FYN, SRC, YES it was 16.0%; on PKR (labeling site Activation Loop, peptide IGDFGLVTSLKNDGKR), -16.3%; at PKR (labeling site Lys2, peptide DLKPSNIFLVDTK), -9.9%. For the same molecule, the Inhibition in the assay on NEK6, NEK7 is -9.6%. At FLT3 ITD, this molecule showed an IC50 of 3.9 nM. The “Outgrowth of leukemia cells (bioluminescence)” value with OCI-AML3-Luc+ cells (setting [2]) is recorded as “suppressed the outgrowth of leukemia cells”. The “Spleen weight at study endpoint (mean ± SD)” value in the assay on OCI-AML3-Luc+ cells (setting [2]) is 181 ± 21 mg. For the same molecule, in the assay with OCI-AML3-Luc+ cells (50 mg/kg once daily 5 days/week up to 6 weeks), the “Survival prolonged compared with vehicle” value is recorded as 9 days. The Kd at CDK7 is < 5 nM.
